Source: patent US10550112B2, “Pyrimidines as EGFR inhibitors and methods of treating disorders” (Dana-Farber Cancer Institute, Inc., priority 2015, dated 2020)
pEC50: −log10 of the molar value.

Assays:
Format in all cases: cell-based, Murine
[1] = target: EGFR wild type Ba/F3 cell line (Homo sapiens, UniProt P00533, cells depend on it, form not given); assay: Ba/F3 cell proliferation MTS assay, EGFR wild type; settings: 72 hours
[2] = target: EGFR InsGY Ba/F3 cell line (Homo sapiens, UniProt P00533, DELINS770-770GY, cells depend on it); assay: Ba/F3 cell proliferation MTS assay, EGFR InsGY; settings: EGFR InsGY (D770delinsGY) Ba/F3 cells, 72 hours
Method: (§1) Different EGFR exon 20 insertion mutations were introduced via site directed mutagenesis into full length EGFR using the Quick Change Site-Directed Mutagenesis kit (Stratagene; La Jolla, Calif.) according to the manufacturer's instructions. All constructs were confirmed by DNA sequencing. The constructs were shuttled into the retroviral vector JP1540 using the BD Creator™ System (BD Biosciences). […] Stable clones were obtained by selection in puromycin (2 μg/ml) and growth in IL-3 free media.
(§2) Murine Ba/F3 cells engineered to express mutant and wild type EGFR or HER2 protein were used to perform single drug screens. Cell viability was assessed after 72 hours of compound exposure using the colorimetric cell proliferation MTS assay kit (Promega).
(§3) The curves were fitted using a non-linear regression model with a sigmoidal dose response.

[3] = target: EGFR InsSVD Ba/F3 cell line (Homo sapiens, UniProt P00533, DUP768-770, cells depend on it); assay: Ba/F3 cell proliferation MTS assay, EGFR InsSVD; settings: EGFR InsSVD (D770_N771insSVD) Ba/F3 cells, 72 hours
Chain of EGFR InsSVD Ba/F3 cell line (P00533 with tags, fused parts or gaps DUP768-770): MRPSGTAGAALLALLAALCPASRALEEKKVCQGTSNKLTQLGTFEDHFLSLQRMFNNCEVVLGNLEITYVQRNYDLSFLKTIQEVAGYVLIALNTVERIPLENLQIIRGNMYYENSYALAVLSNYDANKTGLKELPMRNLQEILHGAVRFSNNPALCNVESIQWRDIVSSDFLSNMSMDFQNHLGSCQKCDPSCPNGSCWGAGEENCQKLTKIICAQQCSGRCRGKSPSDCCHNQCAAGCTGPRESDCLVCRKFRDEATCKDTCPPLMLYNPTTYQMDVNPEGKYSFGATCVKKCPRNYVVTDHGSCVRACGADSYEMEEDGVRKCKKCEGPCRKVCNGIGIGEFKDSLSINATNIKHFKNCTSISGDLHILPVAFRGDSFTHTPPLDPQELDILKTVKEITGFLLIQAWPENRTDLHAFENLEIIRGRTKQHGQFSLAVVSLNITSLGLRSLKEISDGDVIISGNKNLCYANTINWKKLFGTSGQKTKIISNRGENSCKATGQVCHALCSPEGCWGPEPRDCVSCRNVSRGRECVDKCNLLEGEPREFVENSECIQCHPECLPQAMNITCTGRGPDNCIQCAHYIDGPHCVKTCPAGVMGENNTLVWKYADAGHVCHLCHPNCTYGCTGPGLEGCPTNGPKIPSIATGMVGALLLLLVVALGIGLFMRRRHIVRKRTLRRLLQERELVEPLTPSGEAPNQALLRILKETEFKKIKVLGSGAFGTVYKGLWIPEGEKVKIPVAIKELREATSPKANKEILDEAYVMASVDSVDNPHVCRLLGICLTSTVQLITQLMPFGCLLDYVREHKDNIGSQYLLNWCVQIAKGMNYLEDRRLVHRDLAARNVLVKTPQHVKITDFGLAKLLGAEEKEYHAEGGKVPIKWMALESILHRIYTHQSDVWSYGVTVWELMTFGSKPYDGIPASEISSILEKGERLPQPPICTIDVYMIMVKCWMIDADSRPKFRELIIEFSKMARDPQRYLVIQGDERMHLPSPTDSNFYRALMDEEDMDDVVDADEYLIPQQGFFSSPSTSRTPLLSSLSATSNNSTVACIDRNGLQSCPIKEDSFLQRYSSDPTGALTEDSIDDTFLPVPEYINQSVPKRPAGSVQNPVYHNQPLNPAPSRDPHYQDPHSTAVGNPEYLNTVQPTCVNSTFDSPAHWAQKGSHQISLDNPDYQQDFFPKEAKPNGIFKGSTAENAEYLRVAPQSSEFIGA
Method: as §1, §2, §3

[4] = target: EGFR InsASV Ba/F3 cell line (Homo sapiens, UniProt P00533, DUP767-769, cells depend on it); assay: Ba/F3 cell proliferation MTS assay, EGFR InsASV; settings: EGFR InsASV (V769_D770insASV) Ba/F3 cells, 72 hours
Method: as §1, §2, §3

[5] = target: HER2 wild type Ba/F3 cell line (Homo sapiens, UniProt P04626); assay: Ba/F3 cell proliferation MTS assay, HER2 wild type; settings: HER2 wild type Ba/F3 cells, 72 hours
Chain of HER2 wild type Ba/F3 cell line (P04626 whole entry, stated change not applied): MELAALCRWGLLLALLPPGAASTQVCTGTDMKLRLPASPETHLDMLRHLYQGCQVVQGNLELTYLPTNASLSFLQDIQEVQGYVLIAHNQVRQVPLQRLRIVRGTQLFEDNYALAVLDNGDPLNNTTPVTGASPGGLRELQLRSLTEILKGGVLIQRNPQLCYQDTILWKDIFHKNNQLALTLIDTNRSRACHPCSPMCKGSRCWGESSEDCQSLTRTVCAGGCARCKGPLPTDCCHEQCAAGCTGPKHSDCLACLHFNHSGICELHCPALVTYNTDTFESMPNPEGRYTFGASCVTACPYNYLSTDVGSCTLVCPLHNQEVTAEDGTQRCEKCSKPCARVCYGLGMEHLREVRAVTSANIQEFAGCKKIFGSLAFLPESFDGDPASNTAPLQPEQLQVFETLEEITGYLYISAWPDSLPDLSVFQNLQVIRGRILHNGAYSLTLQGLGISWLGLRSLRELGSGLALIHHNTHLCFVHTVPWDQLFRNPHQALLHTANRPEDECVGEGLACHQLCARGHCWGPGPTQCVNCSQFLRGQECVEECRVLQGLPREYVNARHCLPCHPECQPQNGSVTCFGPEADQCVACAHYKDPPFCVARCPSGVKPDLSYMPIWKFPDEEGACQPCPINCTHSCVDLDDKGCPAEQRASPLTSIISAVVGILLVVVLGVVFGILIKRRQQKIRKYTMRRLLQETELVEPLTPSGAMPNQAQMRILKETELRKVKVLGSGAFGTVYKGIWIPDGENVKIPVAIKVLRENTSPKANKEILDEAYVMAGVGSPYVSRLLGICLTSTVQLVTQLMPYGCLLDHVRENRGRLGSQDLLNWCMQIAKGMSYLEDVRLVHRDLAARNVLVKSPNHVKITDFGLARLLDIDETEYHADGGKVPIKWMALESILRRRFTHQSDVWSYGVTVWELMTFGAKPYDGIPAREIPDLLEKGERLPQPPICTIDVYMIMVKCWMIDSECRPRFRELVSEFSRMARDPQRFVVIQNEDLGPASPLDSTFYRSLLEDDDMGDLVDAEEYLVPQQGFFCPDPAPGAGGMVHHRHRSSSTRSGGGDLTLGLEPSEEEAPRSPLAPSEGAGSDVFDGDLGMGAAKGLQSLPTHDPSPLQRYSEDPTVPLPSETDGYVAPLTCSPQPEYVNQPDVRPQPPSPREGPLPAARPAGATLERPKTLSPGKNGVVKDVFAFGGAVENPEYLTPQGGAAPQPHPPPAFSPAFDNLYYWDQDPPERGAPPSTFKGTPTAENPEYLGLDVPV
Method: as §2, §3

[6] = target: HER2 InsYVMA Ba/F3 cell line (Homo sapiens, UniProt P04626, DUP772-775, cells depend on it); assay: Ba/F3 cell proliferation MTS assay, HER2 InsYVMA; settings: 72 hours;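 further: murine Ba/F3 cells engineered to carry mutant HER2, viability read colorimetrically by MTS after 72 h of exposure, EC50 from sigmoidal non-linear regression of dose response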
Chain of HER2 InsYVMA Ba/F3 cell line (P04626 with tags, fused parts or gaps DUP772-775): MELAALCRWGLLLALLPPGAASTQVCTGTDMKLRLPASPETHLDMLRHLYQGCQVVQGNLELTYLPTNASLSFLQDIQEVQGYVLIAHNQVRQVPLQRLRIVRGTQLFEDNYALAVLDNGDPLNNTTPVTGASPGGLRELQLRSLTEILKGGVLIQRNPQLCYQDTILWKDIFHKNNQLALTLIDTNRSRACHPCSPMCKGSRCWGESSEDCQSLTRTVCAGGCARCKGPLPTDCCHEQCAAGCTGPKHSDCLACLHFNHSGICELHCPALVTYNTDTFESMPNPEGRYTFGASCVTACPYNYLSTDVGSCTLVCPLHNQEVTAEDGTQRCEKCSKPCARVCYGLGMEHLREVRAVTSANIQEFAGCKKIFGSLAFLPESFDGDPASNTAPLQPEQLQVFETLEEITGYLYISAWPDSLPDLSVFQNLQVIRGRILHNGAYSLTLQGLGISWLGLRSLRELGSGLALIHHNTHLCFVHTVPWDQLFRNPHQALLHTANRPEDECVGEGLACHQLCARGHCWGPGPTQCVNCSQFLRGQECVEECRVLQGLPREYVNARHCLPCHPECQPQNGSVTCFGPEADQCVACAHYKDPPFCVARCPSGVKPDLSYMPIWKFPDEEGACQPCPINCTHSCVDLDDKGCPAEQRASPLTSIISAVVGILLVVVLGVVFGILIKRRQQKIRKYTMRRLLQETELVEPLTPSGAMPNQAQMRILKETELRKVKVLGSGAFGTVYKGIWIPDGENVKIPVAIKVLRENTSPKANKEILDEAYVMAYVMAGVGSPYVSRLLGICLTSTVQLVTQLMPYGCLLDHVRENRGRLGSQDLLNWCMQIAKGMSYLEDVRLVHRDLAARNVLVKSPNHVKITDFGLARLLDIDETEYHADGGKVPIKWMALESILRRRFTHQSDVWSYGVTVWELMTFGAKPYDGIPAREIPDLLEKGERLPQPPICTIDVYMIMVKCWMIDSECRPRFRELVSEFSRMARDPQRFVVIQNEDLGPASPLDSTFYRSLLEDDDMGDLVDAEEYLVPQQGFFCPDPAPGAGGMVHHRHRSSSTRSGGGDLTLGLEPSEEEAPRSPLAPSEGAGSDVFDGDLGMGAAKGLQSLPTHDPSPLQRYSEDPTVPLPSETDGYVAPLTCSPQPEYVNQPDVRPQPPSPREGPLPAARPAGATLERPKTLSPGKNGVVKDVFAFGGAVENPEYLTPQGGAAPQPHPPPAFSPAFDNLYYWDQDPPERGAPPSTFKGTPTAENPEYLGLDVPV
Method: as §2, §3

Chain of EGFR wild type Ba/F3 cell line (P00533 whole entry, stated change not applied): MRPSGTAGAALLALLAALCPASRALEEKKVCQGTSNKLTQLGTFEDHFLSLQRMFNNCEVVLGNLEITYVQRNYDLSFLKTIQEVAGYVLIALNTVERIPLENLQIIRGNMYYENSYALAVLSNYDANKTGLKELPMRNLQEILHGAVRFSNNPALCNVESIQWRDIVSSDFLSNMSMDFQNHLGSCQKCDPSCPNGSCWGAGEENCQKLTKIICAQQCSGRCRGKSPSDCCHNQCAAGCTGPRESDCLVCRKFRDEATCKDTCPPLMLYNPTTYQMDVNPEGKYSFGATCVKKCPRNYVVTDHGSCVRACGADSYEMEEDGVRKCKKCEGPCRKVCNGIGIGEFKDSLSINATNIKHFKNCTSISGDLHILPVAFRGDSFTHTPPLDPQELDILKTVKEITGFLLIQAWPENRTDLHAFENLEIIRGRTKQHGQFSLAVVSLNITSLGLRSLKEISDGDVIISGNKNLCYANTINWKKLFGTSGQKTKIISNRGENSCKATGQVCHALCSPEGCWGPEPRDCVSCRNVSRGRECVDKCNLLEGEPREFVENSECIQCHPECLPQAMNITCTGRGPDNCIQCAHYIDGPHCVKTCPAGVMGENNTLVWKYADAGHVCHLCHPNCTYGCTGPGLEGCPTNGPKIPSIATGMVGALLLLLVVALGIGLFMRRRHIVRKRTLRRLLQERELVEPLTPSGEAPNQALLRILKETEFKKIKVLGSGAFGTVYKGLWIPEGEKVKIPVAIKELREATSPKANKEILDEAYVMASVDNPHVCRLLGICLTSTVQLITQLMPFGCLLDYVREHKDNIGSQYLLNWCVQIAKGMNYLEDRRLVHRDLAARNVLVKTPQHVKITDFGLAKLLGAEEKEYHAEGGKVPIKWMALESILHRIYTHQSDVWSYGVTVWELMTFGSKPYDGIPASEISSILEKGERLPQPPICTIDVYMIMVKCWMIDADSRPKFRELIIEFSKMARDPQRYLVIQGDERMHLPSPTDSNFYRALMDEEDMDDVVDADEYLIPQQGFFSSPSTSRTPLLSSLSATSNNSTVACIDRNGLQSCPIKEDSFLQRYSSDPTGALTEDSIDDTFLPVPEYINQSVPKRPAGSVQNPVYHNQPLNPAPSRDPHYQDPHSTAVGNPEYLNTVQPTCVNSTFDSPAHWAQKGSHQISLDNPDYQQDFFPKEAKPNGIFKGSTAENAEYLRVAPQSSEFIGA

Row | Structure (SMILES) | pEC50 [1] | pEC50 [2] | pEC50 [3] | pEC50 [4] | pEC50 [5] | pEC50 [6]
1 | C=CC(=O)Nc1cccc(N(C(=O)OCc2ccc(F)nc2)c2ccnc(Nc3ccn(C)n3)n2)c1 [Compound I-12, (6-fluoropyridin-3-yl)methyl (3-acrylamidophenyl)(2-((1-methyl-1H-pyrazol-3-yl)amino)pyrimidin-4-yl)carbamate] | 6.30 to 7.00 | 6.00 to 6.30 | 6.00 to 6.30 | < 6.00 | 6.30 to 7.00 | < 6.00
2 | C=CC(=O)Nc1cccc(N(C(=O)OCc2ccc(F)nc2)c2ccnc(Nc3cnn(C)c3)n2)c1 [Compound I-13, (6-fluoropyridin-3-yl)methyl (3-acrylamidophenyl)(2-((1-methyl-1H-pyrazol-4-yl)amino)pyrimidin-4-yl)carbamate] | 6.30 to 7.00 | < 6.00 | < 6.00 | < 6.00 | 6.30 to 7.00 | < 6.00
3 | C=CC(=O)Nc1cccc(N(C(=O)O[C@@H](C)c2ccc(F)cc2)c2ccnc(Nc3cnn(C)c3)n2)c1 [Compound I-17, (S)-1-(4-fluorophenyl)ethyl (3-acrylamidophenyl)(2-((1-methyl-1H-pyrazol-4-yl)amino)pyrimidin-4-yl)carbamate] | > 7.00 | > 7.00 | > 7.00 | 6.30 to 7.00 | > 7.00 | > 7.00
4 | C=CC(=O)Nc1cccc(N(C(=O)OCc2csc3ccccc23)c2ccnc(Nc3cnn(C)c3)n2)c1 [Compound I-19, benzo[b]thiophen-3-ylmethyl (3-acrylamidophenyl)(2-((1-methyl-1H-pyrazol-4-yl)amino)pyrimidin-4-yl)carbamate] | 6.30 to 7.00 | < 6.00 | < 6.00 | < 6.00 | 6.30 to 7.00 | < 6.00

The remaining lines, values ahead:

Row | pEC50 [1] | pEC50 [2] | pEC50 [3] | pEC50 [4] | pEC50 [5] | pEC50 [6] | Structure (SMILES)
5 | > 7.00 | 6.30 to 7.00 | 6.30 to 7.00 | 6.00 to 6.30 | > 7.00 | 6.30 to 7.00 | C=CC(=O)Nc1cccc(N(C(=O)OCc2ccc(Cl)cc2)c2ccnc(Nc3cnn(C)c3)n2)c1 [Compound I-9, 4-chlorobenzyl (3-acrylamidophenyl)(2-((1-methyl-1H-pyrazol-4-yl)amino)pyrimidin-4-yl)carbamate]
6 | > 7.00 | 6.00 to 6.30 | 6.30 to 7.00 | 6.00 to 6.30 | 6.30 to 7.00 | 6.00 to 6.30 | C=CC(=O)Nc1cccc(N(C(=O)OCc2ccc(F)cn2)c2ccnc(Nc3ccn(C)n3)n2)c1 [Compound I-10, (5-fluoropyridin-2-yl)methyl (3-acrylamidophenyl)(2-((1-methyl-1H-pyrazol-3-yl)amino)pyrimidin-4-yl)carbamate]
7 | > 7.00 | 6.00 to 6.30 | 6.00 to 6.30 | < 6.00 | 6.30 to 7.00 | 6.00 to 6.30 | C=CC(=O)Nc1cccc(N(C(=O)OCc2ccc(F)cn2)c2ccnc(Nc3cnn(C)c3)n2)c1 [Compound I-11, (5-fluoropyridin-2-yl)methyl (3-acrylamidophenyl)(2-((1-methyl-1H-pyrazol-4-yl)amino)pyrimidin-4-yl)carbamate]
8 | > 7.00 | > 7.00 | > 7.00 | 6.30 to 7.00 | > 7.00 | 6.30 to 7.00 | C=CC(=O)Nc1cccc(N(C(=O)O[C@H](C)c2ccc(F)cc2)c2ccnc(Nc3cnn(C)c3)n2)c1 [Compound I-15, (R)-1-(4-fluorophenyl)ethyl (3-acrylamidophenyl)(2-((1-methyl-1H-pyrazol-4-yl)amino)pyrimidin-4-yl)carbamate]
9 | > 7.00 | 6.30 to 7.00 | 6.30 to 7.00 | 6.00 to 6.30 | > 7.00 | 6.00 to 6.30 | C=CC(=O)Nc1cccc(N(C(=O)O[C@@H](C)c2ccc(F)cc2)c2ccnc(Nc3ccn(C)n3)n2)c1 [Compound I-16, (S)-1-(4-fluorophenyl)ethyl (3-acrylamidophenyl)(2-((1-methyl-1H-pyrazol-3-yl)amino)pyrimidin-4-yl)carbamate]
